Results published in patent US11932598B2, “Polyacyloxymethyl-4,4′-acyloxybiphenyl compound” (HONSHU CHEMICAL INDUSTRY CO., LTD., priority 2018, dated 2024).

How the values were obtained:
[1] = Solvent solubility evaluation test (amount dissolved in 100 g of cyclohexanone); format: physicochemical
Method: <Solvent Solubility Evaluation Test>
The 4,4′-Diacetoxy-3,3′,5,5′-tetra(acetoxymethyl)biphenyl obtained in Example 1 (hereinafter referred to as “Present Compound A”) and 4,4′-di(acetoxy)biphenyl (hereinafter referred to as “Comparative Compound a”) were measured for the amounts dissolved in 100 g of cyclohexanone at 40° C. and 60° C. (hereinunder referred to as “solubility (g)”).

[2] = amount dissolved in 100 g of cyclohexanone at 40° C.
[3] = amount dissolved in 100 g of cyclohexanone at 60° C.

SMILES | Solubility [1, 2] [g] | Solubility [1, 3] [g] | melting point [°C]
CC(=O)OCc1cc(-c2cc(COC(C)=O)c(OC(C)=O)c(COC(C)=O)c2)cc(COC(C)=O)c1OC(C)=O [Present Compound A, 4,4′-Diacetoxy-3,3′,5,5′-tetra(acetoxymethyl)biphenyl] | 39.4 | 89.8 | 116.2
CC(=O)Oc1ccc(-c2ccc(OC(C)=O)cc2)cc1 [Comparative Compound a, 4,4′-di(acetoxy)biphenyl, reference compound] | 9.0 | 12.8 | –
